Measured values: patent US10682442B2, “Small molecule drug release from in situ forming degradable scaffolds incorporating hydrogels and bioceramic microparticles” (University of Kentucky Research Foundation, priority 2014, dated 2020)
Values after ≈ are worked out from the molar mass of the structure shown.

Columns and labels:
[1] = In vitro drug release from in situ forming PLGA scaffolds in PBS (Example 1); format: physicochemical; conditions: for burst release within one day: freely mixed
Protocol: PLGA was added to NMP and stirred overnight until fully dissolved to create a 20 wt/wt % PLGA solution. […] HA was also mixed homogeneously prior to injection to bring the final mixture to 30 wt % HA. Clodronate-loaded PBAE microparticles pre-loaded with 50 mg/mL clodronate were added using an identical technique. […] FIG. 6B illustrates the differences between the proposed system and a traditional injectable system. Simvastatin and clodronate were measured as described below.
The scaffold mixture was injected dropwise through a 16 gauge, blunt-tipped dispensing needle into PBS at 5% wt/vol. Upon contacting PBS, surface PLGA immediately began to precipitate, forming semi-spherical scaffolds approximately 3 mm in diameter that sank to the bottom of the vial. Samples were kept in an incubator at 37° C. on a plate shaker for the duration of the study. Supernatant was collected and replaced at each time point, and these samples were preserved at 4° C. until analysis. Clodronate release was measured for three loading conditions: freely mixed clodronate without HA filler, freely mixed clodronate with HA filler, and clodronate pre-loaded into PBAE microparticles with HA filler. Because PBAE microparticles were fabricated with HA as a dispersing agent, drug release from loaded particles was not investigated without HA filler. Simvastatin release was measured for three loading conditions: freely mixed simvastatin without HA filler, freely mixed simvastatin with HA filler, and simvastatin pre-loaded into PBAE microparticles with HA filler.
Clodronate from collected supernatants were measured using a Powerwave HT (Biotek; Winooski, Vt., USA). In vitro release supernatant was pipetted into a UV-grade 96-well plate (Greiner Bio-One, Frickenhausen, Germany), and baseline absorbance was measured at 240 nm.
Drug release from polymeric systems is often analyzed using an adaptation of the Higuchi model by Peppas et al., widely known as the power law, to characterize release kinetics (Siepmann J, Peppas N A. Modeling of drug release from delivery systems based on hydroxypropyl methylcellulose (HPMC). Advanced Drug Delivery Reviews 2001; 48:139-57):
[formula] represents Tractional release or drug at time t, k is a constant encompassing scaffold and drug properties, and it is the release exponent used to characterize drug release. In the case of the spherical geometry (consistent with scaffolds formed via dropwise injection), n=0.43 corresponds to pure Fickian diffusion, n=0.85 corresponds to pure case II (polymer relaxation-based) transport, and values in between are combinations of the two, termed anomalous transport (Siepmann J, Peppas N A. Modeling of drug release from delivery systems based on hydroxypropyl methylcellulose (HPMC). Advanced Drug Delivery Reviews 2001; 48:139-57). Plots of
[formula] so release data were truncated to below 60% cumulative release when calculating n. Mass Loss and Degradation

[2] = Drug loading into PBAE microparticles (loading efficiency, surface vs bulk drug); format: physicochemical; conditions: pre-loaded; 100 mg/mL drug solution
Protocol: FIG. 6A graphically represents the processing method for creating PBAE microparticles, as well as the differences between pre- and post-loaded particles. […] This ratio allowed particles to swell without excess solution remaining, and expected drug loads were calculated under the assumption that all drug solution was imbibed by the microparticles. Particles were lyophilized overnight, briefly re-ground and sieved to break up aggregates, and stored in a vacuum chamber with desiccant. […] Drug-loaded PBAE slabs were ground with 75 wt % HA into particles and stored in a vacuum chamber with desiccant. Predicted values for drug loading using the pre-loading method were obtained by calculating swelling of PBAE in solution based on mass increase and assuming drug was homogeneously present in swollen hydrogels as well as surrounding solution. […] The mixtures containing ethanol and swollen PBAE microparticles were then centrifuged, and supernatants were analyzed using HPLC to detect simvastatin, as described below. Clodronate loading was measured with an identical technique using 50% ethanol, and was detected by absorbance as described below. […] Drug detected in the initial wash was deemed loosely bound to the surface of particles, while drug detected after the 24 hour soak was determined to be imbibed into the bulk of the particles.

O=P(O)(O)C(Cl)(Cl)P(=O)(O)O [clodronate]
solubility (physchem; aqueous with cosolvent or surfactant or cyclodextrin): 20 mg/mL (≈ 81.7 mM) | solubility (physchem; water): ≥ 100 mg/mL | release rate ([1]; all loading conditions, day 20 through day 31): 3 %/day | release rate ([1]; freely mixed without HA, through day 19): 0.6 %/day | burst release within one day ([1]; with HA filler): 32% | burst release within one day ([1]; without HA): 49% | release rate ([1]; mixed with HA, through day 19): 1.3 %/day | release exponent n (power law) ([1]; pre-loaded drug, initial release during burst (first day)): 0.49 | 1 day burst release ([1]; pre-loaded into PBAE microparticles, with HA filler): 32% | release rate ([1]; pre-loaded into microparticles, through day 19): 1.3 %/day | loading efficiency [2]: 59%
